We go through six molecules from patent publication US5700830A, “Use of nitric oxide-releasing agents for reducing metastasis risk” (The United States of America as represented by the …, priority 1994, dated 1997).

The conditions of series [1]: via exhaustion of the relevant enzyme/cofactor system; cited from earlier work.
Series [2] in a line: decomposition half-life and nitric oxide release in aqueous buffer. Type of series: physicochemical. The following applies: pH 7 and 25° C.; for half-life: aqueous buffer. The method, then:
The resulting gel was treated with a few drops of methanol until a homogeneous solution was obtained. The solution was transferred into a micro-Parr bottle and bubbled with nitrogen for 5 min, followed by exposure to 40 psi of NO for 72 h.
The system was degassed and charged with 40 psi of nitric oxide.
The system was evacuated, charged with 40 psi of nitric oxide and kept at 25° C. for 48 h. The white crystalline product was collected by filtration and washed with cold methanol as well as with copious amounts of ether. […] This measurement was based on the loss of the 252-nm chromophore in the ultraviolet spectrum.

The next series concerns DNA synthesis. Particulars: cited from earlier work.
In series [3] the test system is RPMI 1846 melanotic melanoma cells adhering to rat mesenteric postcapillary venules. Briefly: adhesion of melanoma tumor cells to isolated postcapillary venules. In kind it is cell-based, Syrian hamster (tumor cells); Sprague-Dawley rat (vessels). The following applies: 1 mM DETA/NO for 30 min, FIG. 1. The method, then:
RPMI 1846, a melanotic melanoma of a Syrian hamster, was obtained from the American Type Culture Collection, Rockville, Md., and grown in McCoy's 5A medium (GIBCO, Grand Island, N.Y.) supplemented with 20% fetal bovine serum (GIBCO, Grand Island, N.Y.) at 37° C. in a humidified 5% CO2 atmosphere. […]
A segment of bowel and attached mesentery was excised and placed in a dissecting chamber containing ice-cold, pH 7.4 PSS (same as APSS but without added serum). […] A television camera mounted on the microscope was used to project the image onto a television monitor and the images were recorded using a videocassette recorder. […]
After a 30-min stabilization period, the vessel was perfused with tumor cell suspension. […] The number of cells sitting on the microvessel was observed and recorded. […] Five minutes later, the number of tumor cells remaining adherent to the vessel wall was counted and recorded. The percentage of adherent cells was calculated by dividing the number of tumor cells remaining adherent to the vessel wall after flow was resumed for 5 minutes by the total number of cells setting on the vessel wall when flow was interrupted. […]

For series [4] the following is noted: cited from earlier work.

Structures can show the parent of a compound that is named as a salt.

For the molecule `O=[N+]([O-])OCC(CO[N+](=O)[O-])O[N+](=O)[O-]` [glyceryl trinitrate], the tolerance result in series [1] was “tolerance to glyceryl trinitrate can develop”.

Take `CSCC[C@H](NC(C)=O)C(=O)N1CCN([N+]([O-])=NO)CC1` [Example V, 1-[4-(N-acetyl-L-methionyl)piperazin-1-yl]-1-oxo-2-hydroxydiazene, sodium salt]: in series [2], the half-life came to 6.9 min and the “NO produced per mole of test agent” value is reported as 1.72 moles of NO per mole of test agent.

On to `CC(=O)N[C@H](C(=O)O)C(C)(C)SN=O` (racemic) [S-nitroso-N-acetylpenicillamine], for which, in the series with DNA synthesis, the “inhibition of DNA synthesis” value is given as “effective at inhibiting DNA synthesis”.

In the case of `NCCN(CCN)[N+]([O-])=NO` [DETA/NO], the “effect on LPS-enhanced tumor cell adhesion to postcapillary venules” value in series [3] (LPS-treated venules) is given as “completely blocked the enhancing effect of LPS on tumor cell adhesion”. Moreover, the “effect on tumor cell adhesion to untreated venules” value in series [3] (untreated venules, P<0.05) is given as “decreased tumor cell adhesion to untreated venules”.

For `CCOC(=O)N1CCN([N+]([O-])=NO)CC1` [1-(4-carbethoxypiperazin-1-yl)-1-oxo-2-hydroxydiazene, sodium salt], in series [2], the half-life was found to be 5 min.

Nitric oxide: the “solubility in aqueous media” value in series [4] is listed as “limited solubility in aqueous media”.
